Our source for the IC50 values is EP0233461B2, “4,5,6-Substituted-2-pyrimidinamines” (AMERICAN CYANAMID COMPANY, priority 1986, dated 1987).

Where a name gives a salt, the structure may show the parent alone.

In the first experiment the test system is human basophils. The experiment can be described thus: Inhibition of histamine release from immunologically stimulated human basophils. It counts as cell-based. Particulars: Homo sapiens, concentration causing 50% inhibition of histamine release, by linear regression; active if IC50 ≦ 48 µM; read-out: IC50. In short, it runs like this: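 Leukocytes from sedimented human blood, washed in Tris-A and resuspended in Tris-ACM, were challenged with anti-IgE or antigen, with or without compound, for 60 min at 37 °C. Released histamine was measured fluorometrically after OPT derivatization and expressed as percent of total (perchloric acid lysate), corrected for spontaneous release.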
In general, IC50 refers to the concentration needed to halve the response being measured. With `c1ccc(Nc2nccc(-c3ccnc4ccccc34)n2)cc1` [N-Phenyl-4-(4-quinolinyl)-2-pyrimi-dinamine], the concentration for half-maximal inhibition (IC50) was 3000 nM. Take `CC(NC=O)c1cccc(Nc2nccc(-c3cccnc3)n2)c1` (centres unmarked) [N-[1-[3-[[4-(3-Pyridinyl)-2-pyrimidinyl]amino]phenyl]ethyl]formamide]: the concentration for half-maximal inhibition (IC50) is 4600 nM. Regarding `CC(NC=O)c1ccc(Nc2nccc(-c3cccnc3)n2)cc1` (centres unmarked) [N-[1-[4-[[4-(3-Pyridinyl)-2-pyrimidinyl]amino]phenyl]ethyl]formamide], the IC50 was found to be 400 nM. Consider `CCN(CC)CCNC(=O)c1ccc(Nc2nccc(-c3cccnc3)n2)cc1` [N-[2-(Diethylamino)ethyl]-4-[[4-(3-pyridinyl)-2-pyrimidinyl]amino]benzamide], for which the half-maximal inhibitory concentration (IC50) amounted to 800 nM.

Consider `CC(=O)Nc1ccc(Nc2nccc(-c3ccncc3)n2)cc1C` [N-[2-Methyl-4-[[4-(4-pyridinyl)-2-pyrimidinyl]amino]phenyl]acetamide], for which the 50% inhibitory concentration (IC50) amounted to 1200 nM. On the same count and under the same terms, to `CC(N)c1cccc(Nc2nccc(-c3cccnc3)n2)c1` (centres unmarked) [N-[3-(1-Aminoethyl)phenyl)-4-(3-pyridinyl)-2-pyrimidinanine, trihydrochloride] belongs 5100 nM. With `c1ccc(-c2ccnc(Nc3cccc(-n4ccnc4)c3)n2)nc1` [N-[3-(1H-Imidazol-1-yl)phenyl]-4-(2-pyridinyl)-2-pyrimidinamine], the IC50 came out at 100 nM. Take `c1cc(Nc2nccc(-c3cccs3)n2)cc(-n2ccnc2)c1` [N-[3-(1H-Imidazol-1-yl)phenyl]-4-(2-thienyl)-2-pyrimidinamine]: the IC50 amounted to 200 nM. On to `c1cncc(-c2ccnc(Nc3cccc(-n4ccnc4)c3)n2)c1` [N-[3-(1H-Imidazol-1-yl)phenyl]-4-(3-pyridinyl)-2-pyrimidinamine], for which the IC50 stood at 100 nM. Same read-out and setting: to `c1cc(Nc2nccc(-c3ccncc3)n2)cc(-n2ccnc2)c1` [N-[3-(1H-Imidazol-1-yl)phenyl]-4-(4-pyridinyl)-2-pyrimidinamine] belongs 400 nM.

Regarding `CCN(CC)CCOc1cccc(Nc2nccc(-c3ccco3)n2)c1` [N-[3-[2-(Diethylamino)ethoxy]phen-yl]-4-(2-furanyl)-2-pyrimidinamine], the IC50 amounted to 1300 nM. Turning to `CCN(CC)CCOc1cccc(Nc2nccc(-c3cccs3)n2)c1` [N-[3-[2-(Diethylamino)ethoxy]phen-yl]-4-(2-thienyl)-2-pyrimidinamine], the concentration for half-maximal inhibition (IC50) came out at 600 nM. For `CCN(CC)CCOc1cccc(Nc2nccc(-c3cccnc3)n2)c1` [N-[3-[2-(Diethylamino)ethoxy]phenyl]-4-(3-pyridinyl)-2-pyrimidinamine], the IC50 was 2800 nM. `CCN(CC)CCOc1cccc(Nc2nccc(-c3ccncc3)n2)c1` [N-[3-[2-(Diethylamino)ethoxy]phenyl]-4-(4-pyridinyl)-2-pyrimidinamine]: the half-inhibitory concentration (IC50) worked out at 700 nM. `CC(=O)Nc1cccc(Nc2nccc(-c3ccccn3)n2)c1` [N-[3-[[4-(2-Pyridinyl)-2-pyrimidinyl]amino]-phenyl]acetamide]: the IC50 worked out at 300 nM. Regarding `CC(=O)Nc1cccc(Nc2nccc(-c3cccnc3)n2)c1` [N-[3-[[4-(3-Pyridinyl)-2-pyrimidinyl]amino]-phenyl]acetamide], the concentration for half-maximal inhibition (IC50) was 5000 nM. For `CC(=O)Nc1cccc(Nc2nccc(-c3ccncc3)n2)c1` [N-[3-[[4-(4-Pyridinyl)-2-pyrimidinyl]amino]-phenyl]acetamide], the half-maximal inhibitory concentration (IC50) came to 2100 nM.

Take `CC(C)(C)c1ccc(Nc2nccc(-c3cccs3)n2)cc1` [N-[4-(1,1-Dimethylethyl)phenyl]-4-(2-thienyl)-2-pyrimidinamine]: the IC50 worked out at 4600 nM. On to `CC(C)(C)c1ccc(Nc2nccc(-c3cccnc3)n2)cc1` [N-[4-(1,1-Dimethylethyl)phenyl]-4-(3-pyridinyl)-2-pyrimidinamine], for which the IC50 came out at 700 nM. For the compound `CC(C)c1ccc(Nc2nccc(-c3cccnc3)n2)cc1` [N-[4-(1-Methylethyl)phenyl]-4-(3-pyridinyl)-2-pyrimidinamine], the IC50 was determined as 1100 nM.

For `FC(F)(F)c1cc(Nc2nccc(-c3ccccn3)n2)ccc1-n1ccnc1` [N-[4-(1H-Imidazol-1-yl)-3-(tri-fluoromethyl)phenyl]-4-(2-pyridin-yl)-2-pyrimidinamine], the concentration for half-maximal inhibition (IC50) was found to be 1600 nM. Same read-out and setting: to `FC(F)(F)c1cc(Nc2nccc(-c3ccncc3)n2)ccc1-n1ccnc1` [N-[4-(1H-Imidazol-1-yl)-3-(trifluoromethyl)-phenyl]-4-(4-pyridinyl)-2-pyrimidinamine] belongs 400 nM; to `c1ccc(-c2ccnc(Nc3ccc(-n4ccnc4)cc3)n2)nc1` [N-[4-(1H-Imidazol-1-yl)phenyl]-4-(2-pyridinyl)-2-pyrimidinamine], 1800 nM; to `c1cncc(-c2ccnc(Nc3ccc(-n4ccnc4)cc3)n2)c1` [N-[4-(1H-Imidazol-1-yl)phenyl]-4-(3-pyridinyl)-2-pyrimidinamine], 1300 nM. Consider `c1cc(-c2ccnc(Nc3ccc(-n4ccnc4)cc3)n2)ccn1` [N-[4-(1H-Imidazol-1-yl)phenyl]-4-(4-pyridinyl)-2-pyrimidinamine], for which the concentration for half-maximal inhibition (IC50) came to 12300 nM. The same measure, in the same setting: to `C=CCOc1ccc(Nc2nccc(-c3cccnc3)n2)cc1` [N-[4-(2-Propenyloxy)phenyl]-4-(3-pyridinyl)-2-pyrimidinamine] belongs 800 nM; to `Nc1cccc(Nc2nccc(-c3ccccn3)n2)c1` [N-[4-(2-Pyridinyl)-2-pyrimidinyl]-1,3-benzenediamine], 200 nM; to `Nc1ccc(Nc2nccc(-c3ccccn3)n2)cc1` [N-[4-(2-Pyridinyl)-2-pyrimidinyl]-1,4-benzenediamine, dihydrochloride], 1000 nM. Take `Nc1cccc(Nc2nccc(-c3cccnc3)n2)c1` [N-[4-(3-Pyridinyl)-2-pyrimidinyl]-1,3-benzenediamine, dihydrochloride]: the IC50 came to 400 nM. `CN1CCN(c2ccc(Nc3nccc(-c4ccccn4)n3)cc2)CC1` [N-[4-(4-Methyl-1-piperazinyl)phenyl]-4-(2-pyridinyl)-2-pyrimidinamine]: the IC50 is below 24000 nM. With `CN1CCN(c2ccc(Nc3nccc(-c4cccs4)n3)cc2)CC1` [N-[4-(4-Methyl-1-piperazinyl)phenyl]-4-(2-thienyl)-2-pyrimidinamine], the half-inhibitory concentration (IC50) was below 24000 nM.

As for `CN1CCN(c2ccc(Nc3nccc(-c4cccnc4)n3)cc2)CC1` [N-[4-(4-Methyl-1-piperazinyl)phenyl]-4-(3-pyridinyl)-2-pyrimidinamine], the 50% inhibitory concentration (IC50) was found to be 1500 nM. The same measure, in the same setting: to `CN1CCN(c2ccc(Nc3nccc(-c4ccncc4)n3)cc2)CC1` [N-[4-(4-Methyl-1-piperazinyl)phenyl]-4-(4-pyridinyl)-2-pyrimidinamine] belongs 600 nM; to `Nc1cccc(Nc2nccc(-c3ccncc3)n2)c1` [N-[4-(4-Pyridinyl)-2-pyrimidinyl]-1,3-benzenediamine], 1000 nM. Turning to `Nc1ccc(Nc2nccc(-c3ccncc3)n2)cc1` [N-[4-(4-Pyridinyl)-2-pyrimidinyl]-1,4-benzenediamine, hydrochloride], the IC50 turned out to be 3000 nM. Take `CC(N)c1ccc(Nc2nccc(-c3cccnc3)n2)cc1` (centres unmarked) [N-[4-[1-Aminoethyl)phenyl]-4-(3-pyridinyl)-2-pyrimidinamine, trihydrochloride]: the half-maximal inhibitory concentration (IC50) is 800 nM. On the same count and under the same terms, then `CCN(CC)CCOc1ccc(Nc2nccc(-c3ccncc3)n2)cc1` [N-[4-[2-(Diethylamino)ethoxy]phenyl]-4-(4-pyridinyl)-2-pyrimidinamine], with 200 nM. Turning to `CN(C)CCOc1ccc(Nc2nccc(-c3cccnc3)n2)cc1` [N-[4-[2-(Dimethylamino)ethoxy]phenyl]-4-(3-pyridinyl)-2-pyrimidinamine], the IC50 stood at 500 nM. For `CN(C)CCOc1ccc(Nc2nccc(-c3ccncc3)n2)cc1` [N-[4-[2-(Dimethylamino)ethoxy]phenyl]-4-(4-pyridinyl)-2-pyrimidinamine], the IC50 was found to be 1500 nM. Take `CN(C)CCOc1ccc(N(CCN(C)C)c2nccc(-c3ccncc3)n2)cc1` [N-[4-[2-(Dimethylamino)ethoxy]phenyl]-N',N'-dimethyl-N-[4-(4-pyridinyl)-2-pyrimidinyl]-1,2-ethanediamine]: the 50% inhibitory concentration (IC50) is 9100 nM. Consider `CCN(CC)CCOc1ccc(Nc2nccc(-c3cccnc3)n2)cc1` [N-[4-[2-Diethylamino)ethaxy]phenyl]-4-(3-pyridinyl)-2-pyrimidinamine], for which the IC50 came to 200 nM. As to `CC(C)N(CCOc1ccc(Nc2nccc(-c3cccnc3)n2)cc1)C(C)C` [N-[4-[2-[bis(1-Methylethyl)amino]ethoxy]phenyl]-4-(3-pyridinyl)-2-pyrimidinamine], the IC50 was 4600 nM.

On to `CN(C)CCCOc1ccc(Nc2nccc(-c3cccnc3)n2)cc1` [N-[4-[3-(Dimethylamino)propoxy]phenyl]-4-(3-pyridinyl)-2-pyrimidinamine], for which the half-inhibitory concentration (IC50) amounted to 500 nM.

As to `CN(C)CCCOc1ccc(Nc2nccc(-c3ccncc3)n2)cc1` [N-[4-[3-(Dimethylamino)propoxy]phenyl]-4-(4-pyridinyl)-2-pyrimidinamine], the IC50 is 1300 nM. As to `CC(=O)Nc1ccc(Nc2nccc(-c3ccco3)n2)cc1` [N-[4-[[4-(2-Furanyl)-2-pyrimidin-yl]amino]phenyl]acetamide], the IC50 was 700 nM. For the compound `CC(=O)Nc1ccc(Nc2nccc(-c3ccccn3)n2)cc1` [N-[4-[[4-(2-Pyridinyl)-2-pyrimidinyl]amino]-phenyl]acetamide], the IC50 is 1500 nM.

The same experiment, now with this note: concentration causing 50% inhibition of histamine release, by linear regression; active if IC50 ≦ 48 µM; read-out: IC50.
In the case of `c1ccc(Nc2nccc(-c3ccncc3)n2)cc1` [N-Phenyl-4-(4-pyridinyl)-2-pyrimidinamine], the IC50 turned out to be 900 nM. On to `Nc1ccc(Nc2nccc(-c3ccncc3)n2)cc1` [N-[4-(4-Pyridinyl)-2-pyrimidinyl)-1,4-benzenediamine], for which the IC50 is 2400 nM. As to `CN(C)c1ccc(Nc2nccc(-c3ccccn3)n2)cc1` [N-[4-(Dimethylamino)phenyl]-4-(2-pyridinyl)-2-pyrimidinamine], the IC50 worked out at 2700 nM.

In the case of `CN(C)c1ccc(Nc2nccc(-c3ccncc3)n2)cc1` [N-[4-(Dimethylamino)phenyl]-4-(4-pyridinyl)-2-pyrimidinamine], the 50% inhibitory concentration (IC50) stood at 3800 nM.
